Laboratory results: ChEMBL document CHEMBL1201862, “PubChem BioAssay data set” (2004)
Activity calls are given as the source filed them.

How the values were obtained:
[1] = biological target: T1, Adenosylmethionine-8-amino-7-oxononanoate aminotransferase (Mycobacterium tuberculosis, UniProt P9WQ81); assay: Mycobacterium tuberculosis BioA enzyme inhibitor Measured in Biochemical System Using Plate Reader - 2163-02_Inhibitor_Dose_CherryPick_Activity.; type: functional, Mycobacterium tuberculosis UT205
T1 sequence (P9WQ81 whole entry): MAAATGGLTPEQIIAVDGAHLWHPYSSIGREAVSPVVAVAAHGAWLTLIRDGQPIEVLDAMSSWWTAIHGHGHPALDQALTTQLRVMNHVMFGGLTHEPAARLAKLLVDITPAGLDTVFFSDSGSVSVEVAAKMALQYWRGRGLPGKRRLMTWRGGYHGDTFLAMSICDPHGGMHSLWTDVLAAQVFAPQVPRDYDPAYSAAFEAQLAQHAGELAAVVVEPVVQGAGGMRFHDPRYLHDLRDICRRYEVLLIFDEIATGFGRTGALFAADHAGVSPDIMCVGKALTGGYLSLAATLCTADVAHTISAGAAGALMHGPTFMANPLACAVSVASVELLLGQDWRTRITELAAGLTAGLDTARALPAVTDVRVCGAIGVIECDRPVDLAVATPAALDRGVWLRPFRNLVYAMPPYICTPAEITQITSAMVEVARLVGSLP

[2] = biological target: T2, Rac GTPase-activating protein 1 (Homo sapiens, UniProt Q9H0H5); assay: blockers of MgcRacGAP-driven Rac1 GTP hydrolysis – biochemical, ADP Hunter fluorescence, primary and confirmatory, confirmation (AID 624330); type: functional
T2 sequence (Q9H0H5 whole entry): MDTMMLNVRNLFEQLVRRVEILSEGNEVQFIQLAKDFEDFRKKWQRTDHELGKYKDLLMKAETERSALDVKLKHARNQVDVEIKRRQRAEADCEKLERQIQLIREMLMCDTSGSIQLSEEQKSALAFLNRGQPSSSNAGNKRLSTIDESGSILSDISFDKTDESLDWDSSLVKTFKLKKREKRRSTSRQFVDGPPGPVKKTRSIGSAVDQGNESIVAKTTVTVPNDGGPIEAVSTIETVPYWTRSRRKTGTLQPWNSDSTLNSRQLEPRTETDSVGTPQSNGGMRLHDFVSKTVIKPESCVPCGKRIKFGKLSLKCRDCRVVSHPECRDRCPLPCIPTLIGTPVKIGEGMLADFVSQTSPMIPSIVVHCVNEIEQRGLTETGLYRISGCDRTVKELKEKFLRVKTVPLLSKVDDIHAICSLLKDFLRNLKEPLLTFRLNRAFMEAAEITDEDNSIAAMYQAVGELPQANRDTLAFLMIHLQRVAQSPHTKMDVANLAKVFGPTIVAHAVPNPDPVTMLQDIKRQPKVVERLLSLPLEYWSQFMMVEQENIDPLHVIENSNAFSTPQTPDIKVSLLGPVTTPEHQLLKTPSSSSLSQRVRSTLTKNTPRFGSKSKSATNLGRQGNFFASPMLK

[3] = biological target: ADP-ribosylation factor GTPase-activating protein 1 (Rattus norvegicus, UniProt Q62848); assay: Fluorescence polarization-based biochemical high throughput dose response screening assay to identify inhibitors of ADP-ribosylation factor GTPase activating protein 1 (ARFGAP1).; type: functional
[4] = NIH-3T3 fibroblast cytotoxicity, dose response, cytotoxicity control, cell-based, fluorescence, Alamar Blue, secondary assay (AID 2327); type: functional;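 also: NIH-3T3 mouse fibroblasts cultured with fluconazole at 8 µg/mL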
[5] = fluconazole-exposed Candida albicans growth modulators – fluorescence, retest, confirmation (AID 2467); type: functional, cell-based
[6] = biological target: T3, Apoptotic protease-activating factor 1 (Homo sapiens, UniProt O14727); type: functional
T3 sequence (O14727 whole entry): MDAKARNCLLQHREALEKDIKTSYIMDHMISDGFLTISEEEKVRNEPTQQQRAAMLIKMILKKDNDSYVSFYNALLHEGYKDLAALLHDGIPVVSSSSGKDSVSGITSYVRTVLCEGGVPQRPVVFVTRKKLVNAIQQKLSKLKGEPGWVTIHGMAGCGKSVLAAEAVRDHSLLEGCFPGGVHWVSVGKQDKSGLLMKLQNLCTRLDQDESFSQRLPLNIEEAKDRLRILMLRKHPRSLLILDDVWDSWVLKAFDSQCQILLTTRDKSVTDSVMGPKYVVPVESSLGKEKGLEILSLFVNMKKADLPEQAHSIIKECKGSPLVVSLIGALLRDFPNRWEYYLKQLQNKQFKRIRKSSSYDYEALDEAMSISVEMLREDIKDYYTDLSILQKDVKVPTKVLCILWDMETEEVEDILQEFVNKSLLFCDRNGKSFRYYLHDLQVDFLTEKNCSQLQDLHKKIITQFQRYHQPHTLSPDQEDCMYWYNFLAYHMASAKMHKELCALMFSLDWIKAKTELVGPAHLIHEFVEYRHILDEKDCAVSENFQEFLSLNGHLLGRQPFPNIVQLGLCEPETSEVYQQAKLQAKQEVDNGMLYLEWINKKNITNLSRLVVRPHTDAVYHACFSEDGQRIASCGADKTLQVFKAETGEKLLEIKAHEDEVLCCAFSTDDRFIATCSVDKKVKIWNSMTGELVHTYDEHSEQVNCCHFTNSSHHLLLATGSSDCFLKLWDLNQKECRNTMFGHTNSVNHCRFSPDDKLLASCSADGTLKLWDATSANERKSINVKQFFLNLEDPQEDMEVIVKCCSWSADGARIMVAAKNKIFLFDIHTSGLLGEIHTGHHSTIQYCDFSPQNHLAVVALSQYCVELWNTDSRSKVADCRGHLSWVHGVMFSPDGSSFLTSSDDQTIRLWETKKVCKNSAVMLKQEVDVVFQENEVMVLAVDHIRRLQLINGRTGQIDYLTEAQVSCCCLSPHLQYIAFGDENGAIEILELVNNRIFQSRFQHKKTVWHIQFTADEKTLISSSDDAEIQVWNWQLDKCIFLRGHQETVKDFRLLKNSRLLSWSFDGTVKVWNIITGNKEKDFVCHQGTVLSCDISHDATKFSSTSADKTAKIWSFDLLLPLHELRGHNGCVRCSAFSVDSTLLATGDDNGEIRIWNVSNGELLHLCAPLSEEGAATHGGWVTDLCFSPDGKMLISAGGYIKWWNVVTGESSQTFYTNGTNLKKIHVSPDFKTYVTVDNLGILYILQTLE

[7] = biological target: T4, Sentrin-specific protease 1 (Homo sapiens, UniProt Q9P0U3); assay: SENP1 catalytic domain blockers, concentration series – biochemical, kinetic FRET, dose response (AID 651697); type: functional; conditions: read-out: IC50_Mean
T4 sequence (Q9P0U3 whole entry): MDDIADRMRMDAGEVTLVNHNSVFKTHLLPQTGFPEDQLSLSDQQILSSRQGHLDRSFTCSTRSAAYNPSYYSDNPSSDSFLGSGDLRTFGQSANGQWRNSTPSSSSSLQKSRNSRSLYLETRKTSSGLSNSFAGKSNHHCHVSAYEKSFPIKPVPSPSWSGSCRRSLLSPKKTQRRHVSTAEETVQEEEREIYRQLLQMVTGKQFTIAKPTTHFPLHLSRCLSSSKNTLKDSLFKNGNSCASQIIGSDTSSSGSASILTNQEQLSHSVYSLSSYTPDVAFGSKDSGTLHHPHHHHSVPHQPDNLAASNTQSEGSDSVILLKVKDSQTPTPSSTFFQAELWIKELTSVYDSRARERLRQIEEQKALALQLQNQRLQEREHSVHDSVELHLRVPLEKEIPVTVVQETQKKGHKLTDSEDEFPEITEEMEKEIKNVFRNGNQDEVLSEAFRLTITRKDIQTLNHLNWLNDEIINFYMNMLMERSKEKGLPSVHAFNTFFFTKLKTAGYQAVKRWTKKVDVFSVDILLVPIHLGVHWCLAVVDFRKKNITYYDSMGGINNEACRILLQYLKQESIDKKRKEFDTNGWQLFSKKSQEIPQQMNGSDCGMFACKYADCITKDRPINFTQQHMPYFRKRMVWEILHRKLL

[8] = biological target: T4, Sentrin-specific protease 1; assay: Dose response confirmation of small molecule inhibitors of the catalytic domain of the SUMO protease, SENP1 in a FRET assay.; type: functional; conditions: read-out: IC50_Mean
[9] = Counterscreen for inhibitors of Trypanosoma brucei methionyl tRNA synthetase (MetRS): Luminescence-based cell-based high throughput dose response assay to identify compounds that are cytotoxic to Jurkat human T lymphocyte cells.; type: functional
[10] = biological target: T5, DNA repair and recombination protein RAD54-like (Homo sapiens, UniProt Q92698); assay: RAD54 Holliday junction migration blockers – biochemical, fluorescence, cherry-picked samples, dose series, confirmation (AID 651657); type: functional
T5 sequence (Q92698 whole entry): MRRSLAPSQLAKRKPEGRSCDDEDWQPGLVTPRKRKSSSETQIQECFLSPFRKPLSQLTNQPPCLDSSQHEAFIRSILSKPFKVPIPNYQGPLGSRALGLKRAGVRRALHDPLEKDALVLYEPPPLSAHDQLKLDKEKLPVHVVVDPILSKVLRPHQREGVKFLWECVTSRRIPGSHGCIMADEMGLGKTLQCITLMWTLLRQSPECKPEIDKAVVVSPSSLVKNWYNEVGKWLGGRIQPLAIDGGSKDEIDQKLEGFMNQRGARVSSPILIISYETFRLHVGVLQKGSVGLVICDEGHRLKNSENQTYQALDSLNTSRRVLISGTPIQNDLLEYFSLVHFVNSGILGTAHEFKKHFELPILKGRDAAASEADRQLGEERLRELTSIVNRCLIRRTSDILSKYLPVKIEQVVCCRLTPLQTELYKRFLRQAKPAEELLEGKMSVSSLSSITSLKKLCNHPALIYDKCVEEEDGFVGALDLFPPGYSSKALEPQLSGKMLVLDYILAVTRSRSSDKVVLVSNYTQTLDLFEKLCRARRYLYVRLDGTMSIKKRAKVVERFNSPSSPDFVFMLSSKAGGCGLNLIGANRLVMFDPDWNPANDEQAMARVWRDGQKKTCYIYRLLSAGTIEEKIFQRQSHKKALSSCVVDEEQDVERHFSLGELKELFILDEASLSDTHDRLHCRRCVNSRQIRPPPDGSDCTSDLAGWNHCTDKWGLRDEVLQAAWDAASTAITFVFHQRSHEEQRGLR

[11] = luciferase reporter signal suppression in cells – H4 neuroglioma cells, luminescence, dose response (AID 1990); type: functional, cell-based
[12] = Luminescence Cell-Based Dose Response HTS to Identify Inhibitors of 5'UTR Stem-Loop Driven Prion Protein mRNA Translation in H4 Neuroglioblastoma Cells. [Related pubchem assays: 1827 (Project Summary), 1813 (Primary HTS)]; type: functional
[13] = alpha-synuclein stem-loop luciferase translation blockers – H4 neuroglioma cells, luminescence, confirmation (AID 1988); type: functional, cell-based
[14] = microbe, parasite or virus in culture; type: functional; conditions: Mycobacterium tuberculosis
[15] = biological target: T6, Ubiquitin-conjugating enzyme E2 N (Homo sapiens, UniProt P61088); type: functional;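 also: Dose-response confirmation in a TR-FRET assay detecting UBC13-driven polyubiquitin chain formation, inhibition measured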
T6 sequence (P61088 whole entry): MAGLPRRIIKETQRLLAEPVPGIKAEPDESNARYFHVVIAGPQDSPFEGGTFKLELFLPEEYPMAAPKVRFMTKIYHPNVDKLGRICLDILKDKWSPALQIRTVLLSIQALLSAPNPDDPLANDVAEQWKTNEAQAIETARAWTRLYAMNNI

INS1 = assay: INS-1E survival protection against cytokine death – cell-based, luminescence, retest, dose response (AID 449756); type: functional; conditions: Rattus norvegicus;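 also: cell death triggered by IL-1 beta plus TNF-alpha plus IFN-gamma mixture; protective hits raise ATP signal compared with cytokine alone wells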
BJ [16] = assay: BJ-TERT fibroblast viability loss – cell-based, RAS-independent, luminescence, dose response (AID 1933); type: functional; conditions: Homo sapiens
BJ [17] = assay: cells; type: functional, cell-based; conditions: Homo sapiens
BJ [18] = assay: BJ-TERT-LT-ST fibroblast viability loss – cell-based, RAS-independent, luminescence, dose response (AID 1935); type: functional; conditions: Homo sapiens;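 also: BJ fibroblasts immortalized with TERT plus LT and ST oncogenes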
[19] = DRD fibroblast viability loss – cell-based, non-viral oncogenic, luminescence, dose response (AID 1934); type: functional; conditions: Homo sapiens

ADP-ribosylation factor GTPase-activating protein 1, sequence (Q62848 whole entry): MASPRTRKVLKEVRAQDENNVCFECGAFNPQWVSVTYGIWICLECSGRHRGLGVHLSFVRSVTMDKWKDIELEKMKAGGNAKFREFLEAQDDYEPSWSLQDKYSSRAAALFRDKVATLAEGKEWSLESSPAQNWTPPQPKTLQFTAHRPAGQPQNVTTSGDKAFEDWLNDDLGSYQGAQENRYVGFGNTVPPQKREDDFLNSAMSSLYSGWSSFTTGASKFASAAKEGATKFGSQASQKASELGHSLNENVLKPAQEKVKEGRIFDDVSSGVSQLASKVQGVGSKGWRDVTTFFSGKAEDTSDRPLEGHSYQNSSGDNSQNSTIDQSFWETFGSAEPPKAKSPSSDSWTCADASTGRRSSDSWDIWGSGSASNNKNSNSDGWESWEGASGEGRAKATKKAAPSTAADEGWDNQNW

COc1ccc(NC2CCCN(C(=O)c3ccc(C(C)=O)s3)C2)cc1 (stereo not given)
AC50 [1]: 1.99 µM (active)
IC50 [2]: 80.9 µM (active)

Nc1nc(/C=C/c2cccnc2)nc(-c2ccccc2O)n1
IC50 [3]: 165 µM (inactive)

COc1cc(/C=C/C(=O)Nc2cccnc2)cc(OC)c1OC
EC50 [4]: > 160 µM (inactive)
EC50 [5]: > 38 µM (not active)
AC50 [1]: 0.629 µM (active)

COc1ccc2[nH]c(=O)c(CNc3ccccc3OC)cc2c1
IC50 [6]: 51.4 µM (active)

COc1cc(OC)cc(C(=O)Nc2ccccc2-c2nnn(CC(=O)Nc3cc(C)on3)n2)c1
IC50 [3]: 72.6 µM (inactive)

Nc1ccc2c(c1)C(=O)N(CC1CCCO1)C2=O (stereo not given)
IC50 [7]: 11.1 µM (active)
IC50 [8]: 8.2 µM (active)

O=C(Cc1ccc(Br)cc1)NNC(=O)Nc1ccc(Cl)cc1
IC50 [9]: 83.3 µM (inactive)

Nc1c(C(=O)NCCN2CCOCC2)c2nc3ccccc3nc2n1-c1ccccc1
AC50 [10]: 52 µM (active)

Cc1ccc(NC2=C(C(=O)c3ccccc3)N(C)S(=O)(=O)c3ccccc32)cc1
IC50 [7]: 26.2 µM (inactive)
IC50 [8]: 15.4 µM (active)

COc1ccc(CNC[C@@H](CCCCN(C)Cc2ccc(OC)cc2)N2C[C@H](c3ccccc3)N(CCc3ccc(Cl)c(Cl)c3)C(=O)C2=O)cc1
EC50 [11]: > 120 µM (not active)
EC50 [12]: > 120 µM (not active)
EC50 [13]: 9.63 µM (active)
CC50 [14]: 6.46 µM (active)
IC50 [15]: > 20 µM (inactive)
IC50 [6]: 46.4 µM (active)
AC50 (INS1): 7.7 µM (active)

O=C(c1ccc([N+](=O)[O-])o1)N(Cc1nnc(-c2ccccc2Cl)o1)C1CC1
IC50 [6]: > 100 µM (inactive)

COc1ccc(-c2cc(NC=O)c3ncc(-c4cccc(C(=O)N(C)C)c4)n3c2)cn1
AC50 [1]: 11.2 µM (active)

COc1ccc(/C=N/NC(=O)CCn2cnc(-c3ccccc3)c2-c2ccccc2)cc1
EC50 (BJ [16]): 1.9 µM (active)
EC50 (BJ [17]): 46.3 µM (active)
EC50 (BJ [18]): 1.75 µM (active)
EC50 [19]: 1.68 µM (active)
IC50 [6]: 25.2 µM (active)

O=c1[nH]c2cc3ccccc3cc2nc1-c1nnnn1Cc1ccccc1
IC50 [7]: 15.8 µM (active)
IC50 [8]: 7.19 µM (active)
